A short description of data set [1]: Effect of food on oral absorption of IVa in dogs after Iab or IVa capsules. The format is in vivo, dog. The note with it: for AUC / Cmax / Tmax / half-life: dog, po, 20 mg/kg. Here is the method:
To study the effect of food on the oral absorption of IVa after administration of Iab and IVa, these two compounds were administered in capsules as solid to a group of three dogs in a cross-over fashion under overnight fasting and fed conditions. There was a one-week washout period between each study. Iab was administered at 200 mg per dog (ca 20 mg/kg) of IVa equivalent; IVa was administered in a clinical capsule formulation at 200 mg per dog (ca 20 mg/kg). In the studies where the dogs were fed, the following meal was prepared: 2 slices of bacon, 2 eggs, 2 pieces of toast with butter and jelly, 4 oz. hash browns and 8 oz. of whole milk. After homogenization using a laboratory blender, the meal was equally divided into five portions and kept frozen. Before the study, the meals were thawed and each dog was fed one portion.

Data set [2] can be described thus: Cytotoxicity assay (XTT dye reduction) in MT-2 cells. The format is cell-based. The conditions noted are these: human, six days. (Tetrazolium dyes change colour on reduction, which living cells bring about.)
Description: Cytotoxicity assays were conducted with the same MT-2 cells, using methodology well known in the art. […] 50 μl of XTT reagent (1 mg/ml 2,3-bis[2-methoxy-4-nitro-5-sulfophenyl]-2H-tetrazolium-5-carboxanilide, 10 μg/ml phenazine methosulfate dissolved in phosphate buffered saline) was added to each well and incubated for 3 hours. Color formation by actively respiring cells was quantitated in a plate reader at 450 nm, and used to determine a CC50.
For data set [3], the system named is HIV-1. The data set can be described thus: Multiple dose study in HIV patients (antiviral activity of IVa). Type of data set: in vivo, human. Here is the method:
Based on the exposure data from the studies in normal volunteers, an efficacy study was carried out in HIV patients. […] “Antiviral Activity, Safety, and Tolerability of a Novel, Oral Small-Molecule HIV-1 Attachment Inhibitor, IVa, in HIV-1-Infected Subjects” G. Hanna, J. Lalezari, J. Hellinger, D. Wohl, T. Masterson, W. Fiske, J. Kadow, P-F. Lin, M. Giordano, R. Colonno, D. Grasela. Abstract J-32, Feb. 11, 2004, 11th Conference on Retroviruses and Opportunistic Infections (CROI), San Francisco, Calif. The study design included HIV+ adults who were either antiretroviral therapy naïve or off antiretroviral therapy for ≧16 weeks. Their CD4 counts were required to be ≧250 cells/mm3 and plasma HIV-1 RNA needed to be in the range 5,000-500,000 c/mL. There were 15 subjects in each dose arm and the ratio of patients receiving drug:placebo was 4:1.
The placebo-controlled, sequential study of IVa utilized an initial dose arm of 800 mg PO every 12 h followed by a second dosing arm of 1800 mg PO administered every 12 h. It is important to note that drug was administered in a capsule and in combination with a high fat meal to increase exposure and plasma levels. Study drug was administered for 7 days and the morning of Day 8. Subjects were followed for 14 days.

Data set [4] can be described thus: Multiple dose study of Compound IVa in healthy humans. The conditions noted are these: multiple Q12H doses, 14 days. Type of data set: in vivo, human. The protocol: A placebo-controlled, ascending multiple-dose study to evaluate the safety, tolerability and pharmacokinetics of Compound IVa in healthy human subjects was carried out. Dosing was continued at 12 h intervals for 14 days. […] Thus, the exposure was better when dosing was combined with a high fat meal and exposure increases with dose were higher with a high fat meal.

The nature of data set [5]: 2-week oral dose rat toxicology / TK study F. The format is in vivo. The conditions noted are these: rat, plasma, historical; for AUC(0-t): read-out: Mean AUC0-24 hr. Here is the method: In the 2-week oral rat study F (n=six/sex/group), Compound IVe was administered at daily doses of 15, 75, or 200 mg/kg. […] On Day 14, AUC0-24 h values were slightly higher in females (≦644 μg*hr/ml) compared to males (526.88 μg*hr/ml) at dosages 200 mg/kg/day. The oral (PO) results from Study F are in Table 5.

The nature of data set [6]: Solution and solid stability. Type of data set: physicochemical.
Data set [7] can be described thus: Aqueous / crystalline solubility. The note with it: aqueous solution.
In data set [8] the test system is Caco-2 cells. The data set can be described thus: Hydrolysis of prodrug in Caco-2 cells. The format is in vitro ADME.
The conditions of data set [9]: monkey.
Description: (§1) The stability of Iab was studied in fresh blood and serum from rat, dog, monkey and human (n=2). The blood was collected in vacutainers containing K2EDTA (Becton Dickinson, Franklin Lakes, N.J.). The serum was collected in vacutainers containing no anticoagulant. Iab was incubated at a starting concentration of approximately 10 μM for 60-90 min at 37° C. Serial samples were taken at the pre-determined times. Aliquots of blood samples (200 μL) were first mixed with 100 μL of water followed by 400 μL of acetonitrile. The serum samples (50 μL) were added into microtainers containing K2EDTA (Becton Dickinson, Franklin Lakes, N.J.) followed by the addition of 100 μL of acetonitrile. The supernatant was analyzed for both Iab and IVa by LC/MS/MS. The stability of Ibb was studied in fresh blood and serum from rat, dog, monkey and human (n=2). The blood was collected in vacutainers containing K2EDTA (Becton Dickinson, Franklin Lakes, N.J.). The serum was collected in vacutainers containing no anticoagulant. Ibb was incubated at a starting concentration of approximately 15 μM for 90 min at 37° C. Serial samples were taken at the pre-determined times. Aliquots of blood samples (200 μL) were first mixed with 100 μL of water followed by 400 μL of acetonitrile. The serum samples (50 μL) were added into microtainers containing K2EDTA (Becton Dickinson, Franklin Lakes, N.J.) followed by the addition of 100 μL of acetonitrile. […] The stability of Icb was studied in fresh blood and serum from rat, dog, monkey and human (n=2). The blood was collected in vacutainers containing K2EDTA (Becton Dickinson, Franklin Lakes, N.J.). The serum was collected in vacutainers containing no anticoagulant. Icb was incubated at a starting concentration of approximately 10 μM for 90 min at 37° C. Serial samples were taken at the pre-determined times. Aliquots of blood samples (200 μL) were first mixed with 100 μL of water followed by 400 μL of acetonitrile. The serum samples (50 μL) were added into microtainers containing K2EDTA (Becton Dickinson, Franklin Lakes, N.J.) followed by the addition of 100 μL of acetonitrile.
For data set [10] the following is noted: dog, 10 μM.
Description: as §1
The conditions of data set [11]: dog.
Description: as §1
Where [12] appears, read: in vivo, dogs, IVa Clinical Form Capsules, Fasting.
[13] abbreviates: in vivo, dogs, IVa Clinical Form Capsules, Fed.
The mark [14] stands for this setting: plasma, IVa after Iab dry-filled capsules, Fasting.
The mark [15] stands for this setting: plasma, IVa after Iab dry-filled capsules, Fed.
[16] abbreviates: dogs, IVa Clinical Form Capsules (20 mg/kg).
Where [17] appears, read: 800 mg PO every 12 h with high fat meal.

Structures are written as SMILES. “Also recorded” adds a separate entry of the source. Counter-ions that a name gives are not always drawn. Like-named read-outs stand apart in the source and are kept apart here.

The compound `COc1ncc(OC)c2c(C(=O)C(=O)N3CCN(C(=O)c4ccccc4)CC3)c[nH]c12` [IVa, N-(benzoyl)-N′-[(4,7-dimethoxy-6-azaindol-3-yl)-oxoacetyl]piperazine] displayed an AUC in [1] (in vivo, dogs, IVa Clinical Form Capsules (20 mg/kg), Fed) of 96 ± 10 µM·h. In data set [1] (setting [12]), the Cmax was 1.2 ± 0.22 µM and the Tmax was determined as 3.3 ± 1.2 h. Further, in data set [1] (setting [13]), the Cmax came out at 11 ± 0.99 µM and the Tmax is 4 h. In addition, in data set [1] (setting [14]), the Cmax is 70 ± 12 µM, the Tmax stood at 2 h and the half-life was 4.2 ± 0.42 h. Besides, in data set [1] (setting [15]), the Cmax amounted to 130 ± 102 µM, the Tmax came to 1.5 ± 0.87 h and the half-life is 3.2 ± 1 h. The AUC in data set [1] (plasma, IVa in dogs after Iab dry-filled capsules (20 mg/kg of IVa equivalent), Fasting, n = 3) turned out to be 414 ± 70 µM·h. For the same compound, the AUC in [1] (plasma, IVa in dogs after Iab dry-filled capsules (20 mg/kg of IVa equivalent), Fed) is 422 ± 57 µM·h. The same compound gave an AUC in data set [1] (plasma, dogs, IVa Clinical Form Capsules (20 mg/kg), Fasting, n = 3) of 11 ± 1.4 µM·h. Further, the half-life in [1] (plasma, dogs, IVa Clinical Form Capsules, Fasting) is 5.3 ± 2.7 h. In data set [1] (plasma, dogs, IVa Clinical Form Capsules, Fed), this compound had a half-life of 8 ± 3.1 h. For the same compound, in data set [1] (dogs receiving IVa clinical capsule, high fat meal), the “improvement in AUC and Cmax (exposure) in fed vs fasted dogs” value worked out at 9 fold. Also, in data set [1] (setting [16]), the “AUCtot Fed/Fasting Ratio” value was found to be 9.0 ± 2.2 and the “Cmax Fed/Fasting Ratio” value turned out to be 9.1 ± 0.92. This compound also had a CC50 at 6 days in [2] greater than 10 µM. Further, in [3] (setting [17]), the “Day 8 Change in CD4, Mean (SD)” value was 106 (151) cells/mm3; the “Day 8 Change in CD4, Range” value was −214 to +272 cells/mm3; the “Maximal Change in HIV RNA Over 14 days >0.5 log10 c/mL, n (%)” value is on record as 8 (67%) n (%); the “Maximal Change in HIV RNA Over 14 days >1.0 log10 c/mL, n (%)” value was 7 (58%) n (%). For the same compound, in [3] (setting [17]), the “Maximal Change in HIV RNA Over 14 days >1.5 log10 c/mL, n (%)” value is listed as 3 (25%) n (%); the “Maximal change in HIV RNA Over 14 days, Mean (SD)” value is recorded as −1.00 (0.50) log10 c/mL; the “Maximal change in HIV RNA Over 14 days, Range” value was −0.32 to −1.60 log10 c/mL. Also, the “Day 8 Change in HIV RNA, Mean (SD)” value in [3] (800 mg PO every 12 h with high fat meal, HIV+ adults) was −0.72 (0.51) log10 c/mL. For the same compound, the “patients with >1.0 log drop in viral load” value in data set [3] (800 mg dosing level with high fat meal) was determined as 58%. Further, in [3] (1800 mg every 12 h with high fat meal), the “mean response (drop in viral load)” value is recorded as −0.96 log 10. The compound also displayed an accumulation in data set [4] of no more than 1.5 fold.

As to `COc1cnc(-n2cnc(C)n2)c2[nH]cc(C(=O)C(=O)N3CCN(C(=O)c4ccccc4)CC3)c12` [IVc], the Cmax in data set [5] (rats PO 15 mg/kg (soln), 80/10/10 PEG-400/Ethanol/0.1N NaOH) was found to be 42 µM; in data set [5] (rats PO 75 mg/kg (susp)), 65 µM; in [5] (rats PO 200 mg/kg (susp)) it was 76 µM. The AUC(0-t) stood at 418 µM·h in data set [5] (rats PO 15 mg/kg (soln)), 792 µM·h in data set [5] (rats PO 75 mg/kg (susp)) and 1080 µM·h in [5] (rats PO 200 mg/kg (susp)).

Take `COc1cnc(OC)c2c1c(C(=O)C(=O)N1CCN(C(=O)c3ccccc3)CC1)cn2COP(=O)(O)O` [Iab, {3-[(4-benzoylpiperazin-1-yl)(oxo)acetyl]-4,7-dimethoxy-1H-pyrrolo[2,3-c]pyridin-1-yl}methyl dihydrogen phosphate, L-lysine salt (1:1)]: the “solution and solid stabilities” value in [6] is “acceptable solution and solid stabilities”. Moreover, in data set [1] (200 mg/dog of IVa equivalent), the “AUC of IVa from Iab capsules (fasted dogs) relative to fed dogs given IVa clinical capsule” value turned out to be 4 times and the “Cmax of IVa from Iab capsules (fasted dogs) relative to fed dogs given IVa clinical capsule” value was determined as 6 times. Further, the “difference in AUC and Cmax of IVa between fasted and fed dogs” value in data set [1] (dogs receiving Iab capsules) was “No significant differences; also recorded: not significantly different”. Also, the “Cmax of IVa from Iab capsules relative to IVa clinical capsule in fasted dogs” value in data set [1] (fasted dogs, 200 mg/dog of IVa equivalent) came out at 58 times. Further, the “concentration of aqueous solutions prepared for in vivo toxicology studies” value in data set [7] is recorded as greater than 100 mg/mL.

As to `O=C(C(=O)N1CCN(C(=O)c2ccccc2)CC1)c1cn(COP(=O)(O)O)c2c(-n3ccnn3)ncc(F)c12` [Ibb, [3-[(4-benzoylpiperazin-1-yl)(oxo)acetyl]-4-fluoro-7-(1H-1,2,3-triazol-1-yl)-1H-pyrrolo[2,3-c]pyridin-1-yl]methyl dihydrogen phosphate, L-lysine salt (1:1)], the “solution and solid stabilities” value in [6] was “acceptable solution and solid stabilities”. For the same compound, the “hydrolysis to parent in Caco-2 cells” value in data set [8] is listed as “completely hydrolyzed”. Also, in data set [7], the “concentration of aqueous solutions prepared for in vivo toxicology studies” value is greater than 75 mg/mL.

`COc1cnc(-n2cnc(C)n2)c2c1c(C(=O)C(=O)N1CCN(C(=O)c3ccccc3)CC1)cn2COP(=O)(O)O` [Icb, [3-[(4-benzoylpiperazin-1-yl)(oxo)acetyl]-4-methoxy-7-(3-methyl-1H-1,2,4-triazol-1-yl)-1H-pyrrolo[2,3-c]pyridin-1-yl]methyl dihydrogen phosphate, 2-amino-2-(hydroxymethyl)propane-1,3-diol salt (1:1)]: the “conversion of prodrug to parent in blood containing EDTA” value in data set [9] and in data set [11] was less than 2% in each case. The “Icb” value in data set [9] (0 min) was 12 µM; in data set [9] (15 min) it was 12 µM; in [9] (90 min) it was 11 µM; in data set [10] (0 min), 10 µM; in data set [10] (15 min), 9.7 µM; in data set [10] (90 min) it was 6.9 µM. The results for the “Icb” value in data set [11] (0 min), in data set [11] (15 min) and in [11] (90 min) were 10 µM, 10 µM and 11 µM, respectively.

The term half-life denotes how long it takes for the measured level to halve. Usually CC50 stands for the concentration at which the toxic effect on the cells reaches its halfway point.

These data come from US20150315218A1, “SALTS OF PRODRUGS OF PIPERAZINE AND SUBSTITUTED PIPERIDINE ANTIVIRAL AGENTS” (Bristol-Myers Squibb Company, priority 2004, published 2015).
